Our source for the Ki values is patent EP2647638A1, “Substituted tricyclic compounds with activity towards ep1 receptors” (Almirall, S.A., priority 2012, dated 2013).

pKi: −log10 of the molar value. Some results are limits rather than exact numbers.

This assay deals with T1, human EP1 receptor (Homo sapiens, UniProt P34995).
T1 construct: expressed in transfected cells; host or cells: HEK-293 cell membranes
T1 sequence (P34995 1-402): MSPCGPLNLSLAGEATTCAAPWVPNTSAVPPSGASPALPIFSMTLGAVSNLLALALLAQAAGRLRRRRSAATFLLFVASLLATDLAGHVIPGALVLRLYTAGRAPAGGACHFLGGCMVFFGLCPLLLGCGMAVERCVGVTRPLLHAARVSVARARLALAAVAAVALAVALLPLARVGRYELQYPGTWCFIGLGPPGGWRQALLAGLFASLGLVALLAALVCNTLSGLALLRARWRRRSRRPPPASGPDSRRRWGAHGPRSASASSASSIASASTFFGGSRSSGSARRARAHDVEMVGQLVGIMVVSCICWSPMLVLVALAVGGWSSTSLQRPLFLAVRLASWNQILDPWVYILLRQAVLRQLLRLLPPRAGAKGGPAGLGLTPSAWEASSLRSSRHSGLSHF
Put plainly: Human EP1 receptor radioligand binding assay. As to conditions: transfected HEK-293 cell membranes, [3H]-PGE2 (10 nM), pH 6.0, 25 °C for 60 minutes. The procedure: To investigate binding properties of EP1 receptor ligands to human EP1 receptor, transfected HEK-293 cell membranes and [3H]-PGE2 (Perkin Elmer) were used. In 96-well plates the assay was carried out with a total reaction volume of 250 µl, containing 25 µl of membrane suspension (30 µg protein/well), 25 µl of [3H]-PGE2 (10 nM) in either absence or presence of 25 µl of either buffer or PGE2 (10 µM) for total and non-specific binding, respectively. Binding buffer contained 10 mM MES, 1 mM MgCl2 and 1 mM EDTA at pH 6.0. Plates were incubated at 25 °C for 60 minutes. After the incubation period, 200 µl of incubate were transferred to MultiScreen HTS, FB plates (Millipore), filtered and plates were washed 6 times with ice-cold 10 mM MES, 1 mM MgCl2 and 1 mM EDTA at pH 6.0. Filters were dried and counted in a MicroBeta scintillation counter (Perkin-Elmer) using EcoScint liquid scintillation cocktail.
Percentage inhibition was calculated relating compounds activity to the 0% inhibition of the wells incubated with 10 nM [3H]-PGE2 alone (total binding) and 100% inhibition of the wells incubated with 10 nM [3H]-PGE2 plus 10 µM PGE2 (non-specific binding). Competition binding curves were carried out by assaying 6 different concentrations with duplicated points. The inhibition constant (Ki) of each compound was calculated by the Cheng-Prusoff equation: Kl = IC50 /(1+⌊L⌋/KD) [formula] where IC50 is the concentration of compound that displaces the binding of radioligand by 50%, [L] is the free concentration of radioligand and KD is the dissociation constant of each radioligand. IC50 values were obtained by fitting the data with non-linear regression using XIFit software (IDBS).
One may read the pKi as −log10 of the Ki, conventionally taken in molar units. For `Cc1cc(C(=O)O)ccc1[C@H]1Nc2ccc(Cl)cc2[C@@H]2OCCC[C@H]12` (racemic) [Example 10, 4-((4aR, 5S, 10bR)-9-chloro-3,4,4a, 5,6, 10b-hexahydro-2H pyrano[3,2-c]quinolin-5-yl)-3-methylbenzoic acid], the pKi was more than 7.00. `O=C(O)c1ccc([C@@H]2Nc3ccc(Br)cc3[C@@H]3OCCC[C@H]23)cc1` [Example 2, 4-((4aR,5R,10bR)-9-bromo-3,4,4a,5,6,10b-hexahydro-2H-pyrano[3,2-c]quinolin-5-yl)benzoic acid] showed a pKi of less than 6.30. Molecule `COc1ccc2c(c1)[C@@H]1OCCC[C@@H]1[C@H](c1ccc(C(=O)O)cc1C)N2` [Example 5, 4-((4aR, 5R, 10bR)-3,4,4a, 5,6, 10b-hexahydro-9-methoxy-2H pyrano[3,2-c]quinolin-5-yl)-3-methylbenzoic acid] showed a pKi of 6.30 to 7.00. In the case of `Cc1ccc2c(c1)[C@@H]1OCCC[C@@H]1[C@H](c1ccc(C(=O)O)cc1C)N2` [Example 6, 4-((4aR, 5R, 10bR)-3,4,4a, 5,6, 10b-hexahydro-9-methyl-2H pyrano[3,2-c]quinolin-5-yl)-3-methylbenzoic acid] it was 6.30 to 7.00.
